Assay results published in US12473304B2, “Heterocyclic PAD4 inhibitors” (BRISTOL-MYERS SQUIBB COMPANY, priority 2020, dated 2025).

Target: human PAD4 (hPAD4) (Homo sapiens (Human), UniProt Q9UM07)
Assay: RFMS Human PAD4 Functional Assay 1
Format: biochemical
Conditions: RFMS assay 1; 5 nM hPAD4, 250 μM BAEE substrate, 50 μM calcium, 37° C.
How it was run: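 Citrullination product read by RapidFire triple-quad MRM against a modified-citrulline internal standard, after TCA stop and 30 min phenyl glyoxal step at 37 °C. Reaction: 250 μM BAEE, 5 nM human PAD4, 90 min at 37 °C, pH 7.5 HEPES buffer with 50 μM calcium and 5 μM TPEN, following 30 min compound–enzyme preincubation (max 50 μM).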

Chain of human PAD4 (hPAD4) (Q9UM07 whole entry): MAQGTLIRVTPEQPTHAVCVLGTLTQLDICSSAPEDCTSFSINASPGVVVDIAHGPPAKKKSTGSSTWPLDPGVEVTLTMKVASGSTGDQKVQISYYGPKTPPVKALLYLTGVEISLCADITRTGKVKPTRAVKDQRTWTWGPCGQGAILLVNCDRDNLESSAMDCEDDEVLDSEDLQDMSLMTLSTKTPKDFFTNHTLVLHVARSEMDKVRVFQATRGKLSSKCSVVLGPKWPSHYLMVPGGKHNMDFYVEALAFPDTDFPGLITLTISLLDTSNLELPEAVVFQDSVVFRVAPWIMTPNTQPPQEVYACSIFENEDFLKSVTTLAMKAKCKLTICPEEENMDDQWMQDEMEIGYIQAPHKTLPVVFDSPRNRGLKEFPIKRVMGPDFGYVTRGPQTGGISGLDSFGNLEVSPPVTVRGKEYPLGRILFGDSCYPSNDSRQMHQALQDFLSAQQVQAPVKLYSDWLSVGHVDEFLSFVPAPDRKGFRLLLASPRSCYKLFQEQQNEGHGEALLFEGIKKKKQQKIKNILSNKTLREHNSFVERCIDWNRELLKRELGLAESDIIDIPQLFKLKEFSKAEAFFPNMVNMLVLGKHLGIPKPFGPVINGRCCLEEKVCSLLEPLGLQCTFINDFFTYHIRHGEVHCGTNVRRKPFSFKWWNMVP

| IC50 [nM] | Compound |
| --- | --- |
| 69 | Cc1c(-c2cc3ccc(-c4ccc5c(c4)C(=O)NC5)cc3n2CC2CC2)oc2cc(C(=O)N3CC4CCC3[C@@H]4N)ccc12 (stereo partly drawn) [Example 177, 6-(2-(6-((7R)-7-Amino-2-azabicyclo[2.2.1]heptane-2-carbonyl)-3-methylbenzofuran-2-yl)-1-(cyclopropylmethyl)-1H-indol-6-yl)isoindolin-1-one] |
| 153 | Cc1c(-c2cc3ccc(-c4ccc5c(c4)CNC5=O)cc3n2CC2CC2)oc2cc(C(=O)N3CC4CCC3[C@@H]4N)ccc12 (stereo partly drawn) [Example 178, 5-(2-(6-((7R)-7-Amino-2-azabicyclo[2.2.1]heptane-2-carbonyl)-3-methylbenzofuran-2-yl)-1-(cyclopropylmethyl)-1H-indol-6-yl)isoindolin-1-one] |
| 35 | Cc1c(-c2cc3ccc(-c4ccn5c(C)nnc5c4)cc3n2CC2CC2)oc2cc(C(=O)N3CC4CCC3[C@@H]4N)ccc12 (stereo partly drawn) [Example 179, ((7R)-7-Amino-2-azabicyclo[2.2.1]heptan-2-yl)(2-(1-(cyclopropylmethyl)-6-(3-methyl-[1,2,4]triazolo[4,3-a]pyridin-7-yl)-1H-indol-2-yl)-3-methylbenzofuran-6-yl)methanone] |
| 923 | Cc1c(-c2cc3ccc(-c4ccc(O)c(F)c4)cc3n2CC2CC2)oc2cc(C(=O)N3CC4CCC3[C@@H]4N)ccc12 (stereo partly drawn) [Example 182, ((7R)-7-Amino-2-azabicyclo[2.2.1]heptan-2-yl)(2-(1-(cyclopropylmethyl)-6-(3-fluoro-4-hydroxyphenyl)-1H-indol-2-yl)-3-methylbenzofuran-6-yl)methanone] |
| 88 | Cc1c(-c2cc3ccc(-c4ccc(C(N)=O)c(Cl)c4)cc3n2CC2CC2)oc2cc(C(=O)N3CC4CCC3[C@@H]4N)ccc12 (stereo partly drawn) [Example 183, 4-(2-(6-((7R)-7-Amino-2-azabicyclo[2.2.1]heptane-2-carbonyl)-3-methylbenzofuran-2-yl)-1-(cyclopropylmethyl)-1H-indol-6-yl)-2-chlorobenzamide] |
| 25 | Cc1c(-c2cc3ccc(-c4ccc(C(N)=O)c(F)c4)cc3n2CC2CC2)oc2cc(C(=O)N3CC4CCC3[C@@H]4N)ccc12 (stereo partly drawn) [Example 185, 4-(2-(6-((7R)-7-Amino-2-azabicyclo[2.2.1]heptane-2-carbonyl)-3-methylbenzofuran-2-yl)-1-(cyclopropylmethyl)-1H-indol-6-yl)-2-fluorobenzamide] |
| 56 | COc1cc(-c2ccc3cc(-c4oc5cc(C(=O)N6CC7CCC6[C@@H]7N)ccc5c4C)n(CC4CC4)c3c2)ccn1 (stereo partly drawn) [Example 186, ((7R)-7-Amino-2-azabicyclo[2.2.1]heptan-2-yl)(2-(1-(cyclopropylmethyl)-6-(2-methoxypyridin-4-yl)-1H-indol-2-yl)-3-methylbenzofuran-6-yl)methanone] |
| 81 | Cc1cc(-c2ccc3cc(-c4oc5cc(C(=O)N6CC7CCC6[C@@H]7N)ccc5c4C)n(CC4CC4)c3c2)cnc1C(N)=O (stereo partly drawn) [Example 188, 5-(2-(6-((7R)-7-Amino-2-azabicyclo[2.2.1]heptane-2-carbonyl)-3-methylbenzofuran-2-yl)-1-(cyclopropylmethyl)-1H-indol-6-yl)-3-methylpicolinamide] |

Second part, the compound before the results:

| Compound | IC50 [nM] |
| --- | --- |
| Cc1c(-c2cc3ccc(-c4ccc(C(N)=O)c(F)c4)nc3n2CC2CC2)oc2cc(C(=O)N3CC4CCC3[C@@H]4N)ccc12 (stereo partly drawn) [Example 170, 4-(2-(6-((7R)-7-amino-2-azabicyclo[2.2.1]heptane-2-carbonyl)-3-methylbenzofuran-2-yl)-1-(cyclopropylmethyl)-1H-pyrrolo[2,3-b]pyridin-6-yl)-2-fluorobenzamide] | 135 |
| Cc1ccc2cc(-c3oc4cc(C(=O)N5CC6CCC5[C@@H]6N)ccc4c3C)n(CC3CC3)c2n1 (stereo partly drawn) [Example 171, ((7R)-7-Amino-2-azabicyclo[2.2.1]heptan-2-yl)(2-(1-(cyclopropylmethyl)-6-methyl-1H-pyrrolo[2,3-b]pyridin-2-yl)-3-methylbenzofuran-6-yl)methanone] | 76 |
| COc1cc(-c2ccc3cc(-c4oc5cc(C(=O)N6CC7CCC6[C@@H]7N)ccc5c4C)n(CC4CC4)c3n2)ccn1 (stereo partly drawn) [Example 172, ((7R)-7-Amino-2-azabicyclo[2.2.1]heptan-2-yl)(2-(1-(cyclopropylmethyl)-6-(2-methoxypyridin-4-yl)-1H-pyrrolo[2,3-b]pyridin-2-yl)-3-methylbenzofuran-6-yl)methanone] | 8770 |
| COC1CN(c2ccc3cc(-c4oc5cc(C(=O)N6CC7CCC6[C@@H]7N)ccc5c4C)n(CC4CC4)c3n2)C1 (stereo partly drawn) [Example 173, ((7R)-7-Amino-2-azabicyclo[2.2.1]heptan-2-yl)(2-(1-(cyclopropylmethyl)-6-(3-methoxyazetidin-1-yl)-1H-pyrrolo[2,3-b]pyridin-2-yl)-3-methylbenzofuran-6-yl)methanone] | 90 |
| Cc1c(-c2cc3cccnc3n2CC2CC2)oc2cc(C(=O)N3C[C@H](N)C[C@@H](F)C3)ccc12 [Example 174, ((3R,5R)-3-Amino-5-fluoropiperidin-1-yl)(2-(1-(cyclopropylmethyl)-1H-pyrrolo[2,3-b]pyridin-2-yl)-3-methylbenzofuran-6-yl)methanone] | 204 |
| Cc1c(-c2cc3ccc(-c4ccc5c(c4)C(=O)NC5)nc3n2CC2CC2)oc2cc(C(=O)N3C[C@H](N)C[C@@H](F)C3)ccc12 [Example 175, 6-(2-(6-((3R,5R)-3-Amino-5-fluoropiperidine-1-carbonyl)-3-methylbenzofuran-2-yl)-1-(cyclopropylmethyl)-1H-pyrrolo[2,3-b]pyridin-6-yl)isoindolin-1-one] | 830 |
| Cc1c(-c2cc3ccccc3n2CC2CC2)oc2cc(C(=O)N3CC4CCC3[C@@H]4N)ccc12 (stereo partly drawn) [Example 176, ((7R)-7-Amino-2-azabicyclo[2.2.1]heptan-2-yl)(2-(1-(cyclopropylmethyl)-1H-indol-2-yl)-3-methylbenzofuran-6-yl)methanone] | 229 |
| Cc1c(-c2cc3ccc(-c4cnn(C(C)C)c4)cc3n2CC2CC2)oc2cc(C(=O)N3CC4CCC3[C@@H]4N)ccc12 (stereo partly drawn) [Example 180, ((7R)-7-Amino-2-azabicyclo[2.2.1]heptan-2-yl)(2-(1-(cyclopropylmethyl)-6-(1-isopropyl-1H-pyrazol-4-yl)-1H-indol-2-yl)-3-methylbenzofuran-6-yl)methanone] | 220 |
| Cc1c(-c2cc3ccc(-c4cccc(O)c4F)cc3n2CC2CC2)oc2cc(C(=O)N3CC4CCC3[C@@H]4N)ccc12 (stereo partly drawn) [Example 181, ((7R)-7-Amino-2-azabicyclo[2.2.1]heptan-2-yl)(2-(1-(cyclopropylmethyl)-6-(2-fluoro-3-hydroxyphenyl)-1H-indol-2-yl)-3-methylbenzofuran-6-yl)methanone] | 269 |
| Cc1ccc2cc(-c3oc4cc(C(=O)N5CC6CCC5[C@@H]6N)ccc4c3C)n(CC3CC3)c2c1 (stereo partly drawn) [Example 184, ((7R)-7-Amino-2-azabicyclo[2.2.1]heptan-2-yl)(2-(1-(cyclopropylmethyl)-6-methyl-1H-indol-2-yl)-3-methylbenzofuran-6-yl)methanone] | 50 |
| Cc1c(-c2cc3ccc(C4CC4)cc3n2CC2CC2)oc2cc(C(=O)N3CC4CCC3[C@@H]4N)ccc12 (stereo partly drawn) [Example 187, ((7R)-7-Amino-2-azabicyclo[2.2.1]heptan-2-yl)(2-(6-cyclopropyl-1-(cyclopropylmethyl)-1H-indol-2-yl)-3-methylbenzofuran-6-yl)methanone] | 1550 |
| COC1CCN(c2ccc3cc(-c4oc5cc(C(=O)N6CC7CCC6[C@@H]7N)ccc5c4C)n(CC4CC4)c3c2)CC1 (stereo partly drawn) [Example 189, ((7R)-7-Amino-2-azabicyclo[2.2.1]heptan-2-yl)(2-(1-(cyclopropylmethyl)-6-(4-methoxypiperidin-1-yl)-1H-indol-2-yl)-3-methylbenzofuran-6-yl)methanone] | 30 |
| COC1CN(c2ccc3cc(-c4oc5cc(C(=O)N6CC7CCC6[C@@H]7N)ccc5c4C)n(CC4CC4)c3c2)C1 (stereo partly drawn) [Example 190, ((7R)-7-Amino-2-azabicyclo[2.2.1]heptan-2-yl)(2-(1-(cyclopropylmethyl)-6-(3-methoxyazetidin-1-yl)-1H-indol-2-yl)-3-methylbenzofuran-6-yl)methanone] | 58 |
| Cc1c(-c2cc3ccc(N4CCC(N)CC4)cc3n2CC2CC2)oc2cc(C(=O)N3CC4CCC3[C@@H]4N)ccc12 (stereo partly drawn) [Example 191, ((7R)-7-Amino-2-azabicyclo[2.2.1]heptan-2-yl)(2-(6-(4-aminopiperidin-1-yl)-1-(cyclopropylmethyl)-1H-indol-2-yl)-3-methylbenzofuran-6-yl)methanone] | 20 |
| Cc1c(-c2cc3ccc(N4CCNCC4)cc3n2CC2CC2)oc2cc(C(=O)N3CC4CCC3[C@@H]4N)ccc12 (stereo partly drawn) [Example 192, ((7R)-7-Amino-2-azabicyclo[2.2.1]heptan-2-yl)(2-(1-(cyclopropylmethyl)-6-(piperazin-1-yl)-1H-indol-2-yl)-3-methylbenzofuran-6-yl)methanone] | 93 |
| Cc1c(-c2cc3ccc(N4CCNCC4=O)cc3n2CC2CC2)oc2cc(C(=O)N3CC4CCC3[C@@H]4N)ccc12 (stereo partly drawn) [Example 193, 1-(2-(6-((7R)-7-Amino-2-azabicyclo[2.2.1]heptane-2-carbonyl)-3-methylbenzofuran-2-yl)-1-(cyclopropylmethyl)-1H-indol-6-yl)piperazin-2-one] | 334 |
| Cc1c(-c2cc3ccccc3n2CC2CC2)oc2cc(C(=O)N3C[C@H](N)C[C@@H](F)C3)ccc12 [Example 194, ((3R,5R)-3-Amino-5-fluoropiperidin-1-yl)(2-(1-(cyclopropylmethyl)-1H-indol-2-yl)-3-methylbenzofuran-6-yl)methanone] | 1800 |
| Cc1c(-c2cc3ccc(-c4ccc5c(c4)CNC5=O)cc3n2CC2CC2)oc2cc(C(=O)N3C[C@H](N)C[C@@H](F)C3)ccc12 [Example 195, 5-(2-(6-((3R,5R)-3-Amino-5-fluoropiperidine-1-carbonyl)-3-methylbenzofuran-2-yl)-1-(cyclopropylmethyl)-1H-indol-6-yl)isoindolin-1-one] | 363 |
